Laboratory results: US9955691B2, “Macrocyclic picolinamides as fungicides” (DOW AGROSCIENCES LLC, priority 2014, dated 2018)
Where two headings read alike, the source gives them in different places.

Key:
[1] = tested on: Mycosphaerella graminicola; Anamorph: Septoria tritici; test: Fungicidal activity: Leaf Blotch of Wheat (SEPTTR); format: in vivo; settings: Zymoseptoria tritici, High Volume (100 ppm), wheat leaf blotch
Procedure, shortened: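 Compounds were dissolved in acetone, diluted with nine volumes of water containing 110 ppm Triton X-100, and sprayed to run-off on first-leaf Yuma wheat seedlings inoculated with Septoria tritici spores before or after treatment. Plants were held in a dew chamber, then a 20° C. greenhouse. Percent control was derived from disease severity relative to untreated plants.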

[2] = tested on: Puccinia triticina; test: Fungicidal activity: Wheat Brown Rust (PUCCRT); format: in vivo; settings: High Volume (100 ppm)
Procedure, shortened: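 Percent control of brown rust was derived from 0-100% severity on treated versus untreated first leaves. Yuma wheat seedlings were spray-treated to run-off (acetone/water, Triton X-100) and inoculated with P. triticina spores before or after treatment, then held overnight in dark dew at 22° C and moved to a 24° C greenhouse.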

[3] = 24 h, 1 Day Protectant, read-out: SEPTTR 1 DP disease control
[4] = 72 h, 3 Day Curative, read-out: SEPTTR 3 DC disease control
[5] = 24 h, 1 Day Protectant, read-out: PUCCRT 1 DP disease control
[6] = 72 h, 3 Day Curative, read-out: PUCCRT 3 DC disease control

In the case of `COc1ccnc(C(=O)N[C@H]2COC[C@H](CCC(C)C)[C@@H](CCC(C)C)[C@H](C)OC2=O)c1O` [compound 117], the pest or weed control at 100 µg/mL [1, 3] is reported as greater than 70%, the pest or weed control at 100 µg/mL [1, 4] is reported as less than 70% and the pest or weed control at 100 µg/mL [2, 5] is reported as greater than 70%. The pest or weed control at 100 µg/mL [2, 6] was greater than 70%.
`C=C(C)COC[C@@H]1[C@@H](Cc2ccccc2)COC[C@H](NC(=O)c2nccc(OC)c2O)C(=O)O[C@H]1C` [compound 120] gave a pest or weed control at 100 µg/mL [1, 3] of less than 70%, a pest or weed control at 100 µg/mL [1, 4] of less than 70% and a pest or weed control at 100 µg/mL [2, 5] of less than 70%. The pest or weed control at 100 µg/mL [2, 6] was less than 70%.
`COc1ccnc(C(=O)N[C@H]2COC[C@H](Cc3ccccc3)[C@@H](COCC(C)C)[C@H](C)OC2=O)c1O` [compound 121] gave a pest or weed control at 100 µg/mL [1, 3] of less than 70%, a pest or weed control at 100 µg/mL [1, 4] greater than 70% and a pest or weed control at 100 µg/mL [2, 5] of less than 70%. It also gave a pest or weed control at 100 µg/mL [2, 6] of less than 70%.
`COc1ccnc(C(=O)N[C@@H]2COC[C@@H](Cc3ccccc3)[C@H](COCC(C)C)[C@@H](C)OC2=O)c1O` [compound 122] showed a pest or weed control at 100 µg/mL [1, 3] of less than 70%, a pest or weed control at 100 µg/mL [1, 4] of less than 70% and a pest or weed control at 100 µg/mL [2, 5] of less than 70%. The pest or weed control at 100 µg/mL [2, 6] was less than 70%.
Work on `CCCC[C@@H]1[C@@H](Cc2ccc(C(F)(F)F)cc2)COC[C@H](NC(=O)c2nccc(OC)c2O)C(=O)O[C@H]1C` [compound 123] yielded a pest or weed control at 100 µg/mL [1, 3] of less than 70%, a pest or weed control at 100 µg/mL [1, 4] of less than 70% and a pest or weed control at 100 µg/mL [2, 5] of less than 70%. It also gave a pest or weed control at 100 µg/mL [2, 6] of less than 70%.
Molecule `COc1ccnc(C(=O)N[C@H]2COC[C@H](Cc3ccccc3)[C@@H](CC(C)C)[C@H](C)OC2=O)c1O` [compound 125] has a pest or weed control at 100 µg/mL [1, 3] of less than 70%, a pest or weed control at 100 µg/mL [1, 4] of less than 70% and a pest or weed control at 100 µg/mL [2, 5] greater than 70%. It also gave a pest or weed control at 100 µg/mL [2, 6] of less than 70%.
For `CCC[C@H]1COC[C@H](NC(=O)c2nccc(OC)c2O)C(=O)O[C@@H](C)[C@@H]1Cc1ccccc1` [compound 126], the pest or weed control at 100 µg/mL [1, 3] was greater than 70%, the pest or weed control at 100 µg/mL [1, 4] was greater than 70% and the pest or weed control at 100 µg/mL [2, 5] was greater than 70%. For the same molecule, the pest or weed control at 100 µg/mL [2, 6] was greater than 70%.
Work on `COc1ccnc(C(=O)N[C@H]2COC[C@H](CC3CCCC3)[C@@H](CC3CCCC3)[C@H](C)OC2=O)c1O` [compound 127] yielded a pest or weed control at 100 µg/mL [1, 3] greater than 70%, a pest or weed control at 100 µg/mL [1, 4] greater than 70% and a pest or weed control at 100 µg/mL [2, 5] greater than 70%. For the same molecule, the pest or weed control at 100 µg/mL [2, 6] was greater than 70%.
Work on `COc1ccnc(C(=O)N[C@H]2COC[C@H](Cc3ccccc3)[C@@H](CCc3ccccc3)[C@H](C)OC2=O)c1O` [compound 128] yielded a pest or weed control at 100 µg/mL [1, 3] greater than 70%, a pest or weed control at 100 µg/mL [1, 4] greater than 70% and a pest or weed control at 100 µg/mL [2, 5] greater than 70%. It also gave a pest or weed control at 100 µg/mL [2, 6] of less than 70%.
`COc1ccnc(C(=O)N[C@H]2COC[C@H](CCC(C)C)[C@@H](CCc3ccccc3)[C@H](C)OC2=O)c1O` [compound 129] was tested, and the pest or weed control at 100 µg/mL [1, 3] was greater than 70%, the pest or weed control at 100 µg/mL [1, 4] was greater than 70% and the pest or weed control at 100 µg/mL [2, 5] was greater than 70%. For the same molecule, the pest or weed control at 100 µg/mL [2, 6] was greater than 70%.
Work on `COc1ccnc(C(=O)N[C@H]2COC[C@H](CCC(C)C)[C@@H](Cc3ccccc3)[C@H](C)OC2=O)c1O` [compound 133] yielded a pest or weed control at 100 µg/mL [1, 3] greater than 70%, a pest or weed control at 100 µg/mL [1, 4] greater than 70% and a pest or weed control at 100 µg/mL [2, 5] greater than 70%. It also gave a pest or weed control at 100 µg/mL [2, 6] greater than 70%.
`COc1ccnc(C(=O)N[C@H]2COC[C@H](Cc3ccc(Cl)cc3)[C@@H](Cc3ccccc3)[C@H](C)OC2=O)c1O` [compound 135] showed a pest or weed control at 100 µg/mL [1, 3] greater than 70%, a pest or weed control at 100 µg/mL [1, 4] of less than 70% and a pest or weed control at 100 µg/mL [2, 5] greater than 70%. For the same molecule, the pest or weed control at 100 µg/mL [2, 6] was less than 70%.
`COc1ccnc(C(=O)N[C@H]2COC[C@H](Cc3ccc(C(F)(F)F)cc3)[C@@H](Cc3ccccc3)[C@H](C)OC2=O)c1O` [compound 136] gave a pest or weed control at 100 µg/mL [1, 3] greater than 70%, a pest or weed control at 100 µg/mL [1, 4] of less than 70% and a pest or weed control at 100 µg/mL [2, 5] greater than 70%. For the same molecule, the pest or weed control at 100 µg/mL [2, 6] was greater than 70%.
Molecule `COc1ccnc(C(=O)N[C@H]2COC[C@H](Cc3ccc(C(F)(F)F)cc3)[C@@H](Cc3ccc(OC(F)(F)F)cc3)[C@H](C)OC2=O)c1O` [compound 138] has a pest or weed control at 100 µg/mL [1, 3] of less than 70%, a pest or weed control at 100 µg/mL [1, 4] of less than 70% and a pest or weed control at 100 µg/mL [2, 5] of less than 70%. The pest or weed control at 100 µg/mL [2, 6] was less than 70%.
